# Source: publication PMC9150102 (Journal of Medicinal Chemistry, 2022)
# System: STZ diabetic rats
# Test: Echocardiography (hemodynamics) in STZ diabetic rats during i.v. infusion
# Assay type: in vivo, rat
# Method: Drug effects reached a plateau at 15 min of infusion; 10 min after discontinuation of the infusion, most echo indexes affected by the compound returned to the basal level.
# Echocardiographic parameters were measured before (basal) and at 15 and 30 min during drug infusion and 10 min after drug interruption under urethane anesthesia. Data are the mean ± SEM; all the results of echocardiographic indexes are summarized in Table S2; N = 13; *p < 0.05 (one-way RM ANOVA).
# Diabetes was induced in Sprague Dawley male rats (150–175 g) by a single i.v. STZ group (50 mg/kg in citrate buffer) injection in the tail vein. Control (healthy group) rats received vehicle (citrate buffer).
# Rats were studied by transthoracic echocardiographic under anesthesia (1.25 g/kg urethane, i.p). Left-ventricular end-diastolic (LVEDD) and end-systolic (LVESD) diameter, posterior wall (PWT), and interventricular septal thickness (IVST) were measured according to the American Society of Echocardiography guidelines.[16] FS was calculated as FS = (LVEDD – LVESD)/LVEDD. Trans-mitral flow velocity was measured (pulsed Doppler) to obtain early and late filling velocities (E and A waves) and E wave deceleration time (DT). […]
# Hemodynamic studies in rats with diabetic cardiomyopathy
# Control (healthy group) rats received STZ vehicle (citrate buffer). […]
# were considered diabetic9.
# Two-dimensionally guided M-mode recordings were […]
# the American Society of Echocardiography guidelines13. Fractional shortening was calculated as FS = […]
# E wave deceleration time (DT). […]
# jugular vein for drug infusion in rats. Rats were randomly submitted to an echocardiographic study […]
# intravenous infusion at the dose of 0.2 mg/kg/min. Echo parameters were measured at 15 and 30 min after infusion start and 10 min after drug interruption under urethane anesthesia. Data are mean ± SEM. *p<0.05 vs basal (one-way ANOVA for repeated measurements). […]
# basal after 15 min after 30 min after 10 min
# [1] = i.v. infusion 0.2 mg/kg/min, after 15 min
# [2] = i.v. infusion 0.2 mg/kg/min, after 30 min
smiles,measurement,setting,value
C[C@]12CC[C@H](CCCC(=O)O)C[C@@H]1[C@@H](O)C[C@@H]1[C@@H]2CC[C@]2(C)C(=O)CC[C@@H]12 [Compound 5],CO,10 min after drug interruption,"153,2±10,67 ml/min"
same,DT,10 min after drug interruption,"52,4±4,36 ms"
same,DT/E,10 min after drug interruption,"68,2±6,13 s2/mm"
same,E/A,10 min after drug interruption,"1,37±0,06"
same,E/DT,10 min after drug interruption,"16,5±1,78 m/s2"
same,E/e',10 min after drug interruption,"40,22±0,82"
same,EF,10 min after drug interruption,"92,66±1,05%"
same,FS,10 min after drug interruption,"61,3±2,05%"
same,HR,10 min after drug interruption,228±10 bpm
same,IVSTd,10 min after drug interruption,"1,68 ± 0,07 mm"
same,IVSTs,10 min after drug interruption,"2,55 ± 0,10 mm"
same,LVEDD,10 min after drug interruption,"6,84 ± 0,17 mm"
same,LVESD,10 min after drug interruption,"2,64 ± 0,17 mm"
same,PWTd,10 min after drug interruption,"1,17 ± 0,07 mm"
same,PWTs,10 min after drug interruption,"2,42 ± 0,10 mm"
same,SV,10 min after drug interruption,"0,68±0,05 ml"
same,a',10 min after drug interruption,"26,22±1,31 mm/s"
same,e',10 min after drug interruption,"19,4±0,60 mm/s"
same,e'/a',10 min after drug interruption,"0,76±0,047"
same,s',10 min after drug interruption,"20,6±0,53 mm/s"
same,CO,[1],"177,2±11,27 ml/min"
same,DT,[1],"42,46±2,83 ms"
same,DT/E,[1],"49,52±3,44 s2/mm"
same,E/A,[1],"1,36±0,05"
same,E/DT,[1],"21,49±1,61 m/s2"
same,E/e',[1],"37,49±1,2"
same,EF,[1],"90,68±1,4%"
same,FS,[1],"58,1±2,38%"
same,HR,[1],268±15 bpm
same,IVSTd,[1],"1,81±0,08 mm"
same,IVSTs,[1],"2,34±0,10 mm"
same,LVEDD,[1],"6,86±0,17 mm"
same,LVESD,[1],"2,87±0,18 mm"
same,PWTd,[1],"1,16±0,07 mm"
same,PWTs,[1],"2,59±0,09 mm"
same,SV,[1],"0,68±0,05 ml"
same,a',[1],"29,13±1,82 mm/s"
same,e',[1],"23,33±0,73 mm/s"
same,e'/a',[1],"0,84±0,07"
same,s',[1],"22,4±0,86 mm/s"
same,CO,[2],"175,15±9,4 ml/min"
same,DT,[2],"42,15±2,74 ms"
same,DT/E,[2],"48,51±4,56 s2/mm"
same,E/A,[2],"1,34±0,06"
same,E/DT,[2],"23,18±2,32 m/s2"
same,E/e',[2],"37,45±1,24"
same,EF,[2],"92,19±1,18%"
same,FS,[2],"60,7±2,31%"
same,HR,[2],252±14 bpm
same,IVSTd,[2],"1,71±0,1 mm"
same,IVSTs,[2],"2,55±0,13 mm"
same,LVEDD,[2],"6,94±0,15 mm"
same,LVESD,[2],"2,73±0,18 mm"
same,PWTd,[2],"1,22±0,07 mm"
same,PWTs,[2],"2,53±0,10 mm"
same,SV,[2],"0,71±0,04 ml"
same,a',[2],"28,94±1,47 mm/s"
same,e',[2],"24,24±0,65 mm/s"
same,e'/a',[2],"0,86±0,05"
same,s',[2],"21,8±0,78 mm/s"
same,systolic function,i.v. infusion at a single dose,did not affect systolic function significantly
